{"source": "patent US8703812B2", "about": "“Protein synthesis required for long-term memory is induced by PKC activation on days preceding associative learning” (Blanchette Rockefeller Neurosciences Institute, priority 2005, dated 2014)", "key": {"Hermissenda Crassicornis": {"system": "Hermissenda Crassicornis", "test": "Pavlovian conditioning of Hermissenda (retention of conditioned response)", "type": "in vivo", "details": "for effect on bryostatin memory enhancement: 6 TE with bryostatin; for effect on long-term retention: anisomycin 1 μg/ml for four hours post-training (2 TE) after three-day bryostatin treatment", "method": "Bryostatin exposure—Specimens of Hermissenda Crassicornis were maintained in artificial sea water (ASW) at 15° for three days in perforated 50-ml conical centrifuge tubes before starting experiments. Bryostatin, purified from the marine bryozoan Bugula neritina, was dissolved in EtOH and diluted to its final concentration in ASW. […] For selected experiments lactacysteine (10 μM) or anisomycin was added to the ASW.\nBryostatin effects on Hermissenda behavior and biochemistry were produced by adding the drug to the bathing medium within an 8 cm long, 1 cm diameter test tube housing each individual animal.\nPavlovian conditioning of Hermissenda involves repeated pairings of a neutral stimulus, light, with an unconditioned stimulus, orbital shaking. (See, Lederhendler et al. (24) and Epstein et al. (6)). A rotation/shaking stimulus excites the statocyst hair cells and thereby elicits an unconditioned response: a brisk contraction of the muscular undersurface called a foot, accompanied by adherence or “clinging” to the surface that supports the foot. Before conditioning, light elicits a weakly positive phototaxis accompanied by lengthening of the foot. After sufficient light-rotation pairings, light no longer elicits phototaxis, but instead elicits a new response (24): the “clinging” and foot shortening previously elicited only by the unconditional stimulus (FIG. 1). Thus, the meaning of the unconditioned stimulus, rotation or orbital shaking, has been transferred to the conditioned stimulus and is manifested by a light-elicited foot contraction—a negative change of foot length. This conditioned response to light can last for weeks, is not produced by randomized light and rotation, is stimulus-specific, and shares the other defining characteristics of mammalian Pavlovian Conditioning.\nPavlovian conditioning of Hermissenda has well-defined training parameters that produce progressively longer-lasting retention of the learned conditioned response. Two training events (2 TE) of paired light and orbital shaking (see “Methods”), for example, induce a learned conditioned response (light-elicited foot contraction or shortening) that persists without drug treatment for approximately 7 minutes. Four to six training events (4-6 TE) induce a conditioned response that persists up to several hours, but disappears approximately by 1 day after training. Nine TE produces long-term associative memory lasting many days and often up to two weeks."}, "calexcitin": {"system": "calexcitin", "test": "Calexcitin immunostaining in B-photoreceptors", "type": "in vivo, Hermissenda", "method": "Following experimental treatments and testing, animals were rapidly decapitated, the central nervous systems (CNS) removed and then fixed in 4% para-formaldehyde in 20 mM Tris-buffered (pH 8) natural seawater (NSW; 0.2 μm micropore-filtered). The CNSs were then embedded in polyester wax (20), sectioned (6 μm) and immunostained using a biotinylated secondary antibody coupled to avidin-bound microperoxidase (ABC method, Vector), Aminoethylcarbazole (AEC) was used as the chromogen. The primary polyclonal antibody (designated 25U2) was raised in rabbits from the full length calexcitin protein extracted from squid optic lobes. Gray-scale intensity measures were done from digital photomicrographs on circumscribed cytoplasmic areas of the B-photoreceptors minus the same background area (non-staining neuropile)."}, "[1]": {"system": "Rat hippocampal H19-7/IGF-IR cells", "test": "Protein synthesis by [35S]Methionine incorporation", "type": "cell-based", "details": "PKC inhibitor Ro-32 also present", "method": "FIG. 17 depicts the effects of bryostatin on protein synthesis. Rat IGF-IR cells were incubated for 30 minutes with 0.28 nM bryostatin for incubation times ranging from 1 to 79 hours. [^35S]Methionine (9.1 μCi) was then added to the medium followed by analysis of radiolabel.\nRat hippocampal H19-7/IGF-IR cells (ATCC) were plated onto poly-L-lysine coated plates and grown at 35° in DMEM/10% FCS for several days until approx. 50% coverage was obtained. The cells were then induced to differentiate into a neuronal phenotype by replacing the medium with 5 ml N2 medium containing 10 ng/ml basic fibroblast growth factor and grown in T-25 flasks at 39° C. (26). Various concentrations of bryostatin (0.01-1.0 nM) were then added in 10 μl aqueous solution. After a specified interval, the medium was removed and the cells were washed with PBS, removed by gentle scraping, and collected by centrifugation at 1000 rpm for 5 min.\nIn fact, we found here that a single 30-minute exposure to 0.28 nM bryostatin increased overall protein synthesis (FIG. 17), measured by incorporation of ^35-S Methionine in the last ½ hour before collecting the neurons, by 20% within 24 h, increasing to 60% by 79 hours after the bryostatin exposure."}, "PKC-α": {"system": "PKC-α", "details": "20 μM-5 QμM Lactacysteine; cited from earlier work"}, "[2]": {"system": "diacylglycerol-protein kinase C activation", "details": "aorta of diabetic rats; cultured rat smooth muscle cells, elevated glucose; cited from earlier work"}, "[3]": {"details": "vitamin E 2000 IU/day; cited from earlier work"}, "sAPP secretion": {"system": "sAPP secretion", "details": "cited from earlier work"}, "PKC": {"system": "PKC", "test": "Protein kinase C assay (histone phosphorylation) in Hermissenda nervous systems", "type": "in vivo", "details": "anisomycin (1.0 ng/ml) with each bryostatin (0.25 ng/ml) exposure on three successive days", "method": "Bryostatin exposure—Specimens of Hermissenda Crassicornis were maintained in artificial sea water (ASW) at 15° for three days in perforated 50-ml conical centrifuge tubes before starting experiments. Bryostatin, purified from the marine bryozoan Bugula neritina, was dissolved in EtOH and diluted to its final concentration in ASW. Animals were incubated with bryostatin in ASW for 4 hr, then rinsed with normal ASW. For selected experiments lactacysteine (10 μM) or anisomycin was added to the ASW.\nCells were homogenized by sonication (5 sec, 25 W) in 100 μl of 10 mM Tris-HCl pH 7.4 buffer containing 1 mM EGTA, 1 mM PMSF, and 50 mM NaF. Homogenate was transferred to a polyallomer centrifuge tube and was centrifuged at 100,000×g for 10 min at 4°. The supernatant was removed and immediately frozen on dry ice. The particulate fraction was resuspended by sonication in 100 μl of the same buffer and stored at −80°. To measure PKC, 10 μl of cytosol or particulate fraction was incubated for 15 min at 37° in the presence of 10 μM histones, 4.89 mM CaCl2, 1.2 μg/μl phosphatidyl-L-serine, 0.18 μg/μl 1,2-dioctanoyl-sn-glycerol, 10 mM MgCl2, 20 mM HEPES (pH 7.4), 0-8 mM EDTA, 4 mM EGTA, 4% glycerol, 8 μg/ml aprotinin, 8 μg/ml leupeptin, and 2 mM benzamidine. 0.5 μCi [γ^32P]ATP was added and ^32P-phosphoprotein formation was measured by adsorption onto phosphocellulose as described previously (25). This assay was used with slight adjustments for either Hermissenda nervous system homogenates or cultured mammalian neuron homogenates\nIntact Hermissenda were exposed for 4 hour intervals to bryostatin (0.28 nM) on successive days under conditions described (“Behavioral Pharmacology”). Histone phosphorylation (See “Methods”) in isolated circumesophageal nervous systems was then measured in the cytosol fraction. […] (FIG. 12, 13). […] After an initial activation (via translocation), this bryostatin effect is most likely due to increased synthesis of PKC, consistent with the increased levels of calexcitin induced by bryostatin, but not directly correlated with repeated bryostatin exposure."}}}
{"compound": "CN(C)C[C@H]1CCn2c(c(C3=C(c4cn(C)c5ccccc45)C(=O)NC3=O)c3ccccc32)C1", "note": "[Ro-32]", "values": [{"measurement": "effect on bryostatin memory enhancement", "setting": "Hermissenda Crassicornis", "value": "blocked"}, {"measurement": "effect on 6 TE plus bryostatin conditioning", "setting": "Hermissenda Crassicornis; Ro-32 applied pre-training (during dark adaptation)", "value": "blocked"}, {"measurement": "effect on memory consolidation", "setting": "Hermissenda Crassicornis; Ro-32 during the training plus bryostatin", "value": "did prevent memory consolidation"}, {"measurement": "effect on long-term memory induction", "setting": "Hermissenda Crassicornis; Ro-32 immediately after bryostatin plus training", "value": "did not prevent long-term memory induction"}, {"measurement": "effect on learning-specific calexcitin increases in Type B cell", "setting": "calexcitin; Ro-32", "value": "prevented both learning and learning-specific calexcitin increases"}, {"measurement": "effect on bryostatin-induced increase of protein synthesis", "setting": "[1]", "value": "partially blocked"}, {"measurement": "effect on bryostatin-induced increase of protein synthesis", "setting": "[1]; listed as Ro-32-0432", "value": "increasing significantly less"}]}
{"compound": "CC(=O)N[C@@H](CSC(=O)[C@]1([C@@H](O)C(C)C)NC(=O)[C@H](C)[C@@H]1O)C(=O)O", "note": "[Lactacysteine]", "values": [{"measurement": "acquisition or retention of behavioral training", "setting": "Hermissenda Crassicornis; lactacysteine only 10 μM 4 h, 2-paired TEs 24 hrs later", "value": "no acquisition or retention of behavioral training"}, {"measurement": "duration of memory after single bryostatin exposure followed by 2 TE", "setting": "Hermissenda Crassicornis; with lactacysteine", "value": "many days"}, {"measurement": "degradation of PKC-α", "setting": "PKC-α", "value": "largely prevented"}]}
{"compound": "vitamin E", "values": [{"measurement": "diacylglycerol-protein kinase C activation", "setting": "[2]", "value": "normalize diacylglycerol-protein kinase C activation"}, {"measurement": "clinical outcome", "setting": "[3]", "value": "reduced mortality and morbidity, but did not enhance cognitive abilities"}]}
{"compound": "benzolactam", "values": [{"measurement": "sAPP secretion", "setting": "sAPP secretion; benzolactam-treated cells", "value": "enhance sAPP secretion over basal levels"}, {"measurement": "concentration giving significant increases of sAPP secretion", "setting": "sAPP secretion; control fibroblasts", "value": 10, "unit": "µM"}]}
{"compound": "COc1ccc(C[C@H]2NC[C@H](O)[C@H]2OC(C)=O)cc1", "note": "[anisomycin]", "values": [{"measurement": "effect on bryostatin memory enhancement", "setting": "Hermissenda Crassicornis", "value": "blocked"}, {"measurement": "effect on memory retention produced by 9 TE", "setting": "Hermissenda Crassicornis; 4 hour anisomycin treatment, no bryostatin", "value": "eliminated all memory retention"}, {"measurement": "effect on long-term retention", "setting": "Hermissenda Crassicornis", "value": "did not prevent memory retention"}, {"measurement": "effect on long-term retention", "setting": "Hermissenda Crassicornis; listed as Anisomycin", "value": "did not prevent long-term retention"}, {"measurement": "effect on retention produced by single 4-hour bryostatin plus 2 TE", "setting": "Hermissenda Crassicornis; anisomycin 1.0 μg/ml immediately post-training, tested after 4 h", "value": "showed no CR"}, {"measurement": "effect on memory formation", "setting": "Hermissenda Crassicornis; anisomycin after training with and without bryostatin", "value": "completely blocked memory formation"}, {"measurement": "effect on long-term memory", "setting": "Hermissenda Crassicornis; anisomycin during training with and without bryostatin", "value": "did not prevent long-term memory"}, {"measurement": "effect on long-term memory", "setting": "Hermissenda Crassicornis; anisomycin with each of three successive daily 4 hour bryostatin exposures, 2 TE one day after", "value": "long-term memory was eliminated"}, {"measurement": "effect on calexcitin level", "setting": "calexcitin; anisomycin immediately after 2-paired TEs following 3 days of 4-hr bryostatin", "value": "did not reduce this calexcitin level"}, {"measurement": "effect on PKC activity, cytosolic and membrane fractions", "setting": "PKC", "value": "markedly reduced the PKC activity"}]}
{"compound": "CN[C@@H]1C[C@H]2O[C@@](C)([C@@H]1OC)n1c3ccccc3c3c4c(c5c6ccccc6n2c5c31)C(=O)NC4", "note": "[staurosporine]", "values": [{"measurement": "effect on benzolactam-induced sAPP secretion", "setting": "sAPP secretion; control and AD fibroblasts", "value": "eliminated the effects of benzolactam"}]}
